Reference: ChEMBL document CHEMBL1151727, “Citrullination of linear and cyclic altered peptide ligands from myelin basic protein (MBP(87-99)) epitope elicits a Th1 polarized response by T cells isolated from multiple sclerosis patients: implications in triggering disease” (J Med Chem, 2008)
Activity calls are given as the source filed them. Where a SMILES comes first, the peptide text is derived from it. [ ]: non-standard residue; d: D form. Cit = NC(=O)NCCC[C@H](N)C(=O)O

Experiments:
Format in all cases: functional, cell-based
[1] = system: PBMC; experiment: Decrease in IL10 secretion in PBMC isolated from multiple sclerosis patient at 10 pg/mL per 10^6 cells after 72 hrs by ELISA; conditions: Homo sapiens
[2] = system: PBMC; experiment: Induction of IL10 secretion in healthy human PBMC at 10 pg/mL per 10^6 cells after 72 hrs by ELISA
[3] = system: PBMC; experiment: Induction of IFN-gamma secretion in healthy human PBMC at 10 pg/mL per 10^6 cells after 72 hrs by ELISA
[4] = system: PBMC; experiment: Increase in IL2 secretion in PBMC isolated from multiple sclerosis patient at 10 pg/mL per 10^6 cells after 72 hrs by ELISA; conditions: Homo sapiens
[5] = system: PBMC; experiment: Increase in IFN-gamma secretion in PBMC isolated from multiple sclerosis patient at 10 pg/mL per 10^6 cells after 72 hrs by ELISA; conditions: Homo sapiens

Measured: Activity

CC[C@H](C)[C@H](NC(=O)[C@H](CC(N)=O)NC(=O)[C@H](CCCCN)NC(=O)[C@H](Cc1ccccc1)NC(=O)[C@H](Cc1ccccc1)NC(=O)[C@H](Cc1cnc[nH]1)NC(=O)[C@@H](N)C(C)C)C(=O)N[C@H](C(=O)N[C@H](C(=O)N1CCC[C@H]1C(=O)N[C@@H](CCCNC(=N)N)C(=O)N[C@H](C(=O)N1CCC[C@H]1C(=O)O)[C@@H](C)O)[C@@H](C)O)C(C)C
active: [1] | [2]

CC[C@H](C)[C@H](NC(=O)[C@H](CC(N)=O)NC(=O)[C@H](CCCNC(N)=O)NC(=O)[C@H](Cc1ccccc1)NC(=O)[C@H](Cc1ccccc1)NC(=O)[C@H](Cc1cnc[nH]1)NC(=O)[C@@H](N)C(C)C)C(=O)N[C@H](C(=O)N[C@H](C(=O)N[C@@H](C)C(=O)N[C@@H](CCCNC(N)=O)C(=O)N[C@H](C(=O)N1CCC[C@H]1C(=O)O)[C@@H](C)O)[C@@H](C)O)C(C)C (H-VHFF[Cit]NIVTA[Cit]TP-OH)
active: all assays above

H-VHFFRNIVTARTP-OH
active: [3] | [2]
